Reference: PubChem BioAssay (NCI)
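Test compounds were applied to cells in 96-well plates for 48 hours at 5 doses. The concentration for 50% growth inhibition is given as GI50. TGI: total growth inhibition.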

Columns and labels:
Assay in all cases: NCI tumour cell line growth inhibition, 48 h
[1] = tested on: HCT-15 colon
[2] = tested on: IGROV1 ovarian
[3] = tested on: KM12 colon
[4] = tested on: MOLT-4 leukemia
[5] = tested on: NCI-H460 lung
[6] = tested on: RXF 393 renal
[7] = tested on: SNB-19 CNS
[8] = tested on: SR leukemia
[9] = tested on: TK-10 renal
[10] = tested on: UACC-257 melanoma

| Compound | TGI [1] [µM] | TGI [2] [µM] | TGI [3] [µM] | TGI [4] [µM] | TGI [5] [µM] | TGI [6] [µM] | TGI [7] [µM] | TGI [8] [µM] | TGI [9] [µM] | TGI [10] [µM] | GI50 [1] [µM] | GI50 [2] [µM] | GI50 [3] [µM] | GI50 [4] [µM] | GI50 [5] [µM] | GI50 [6] [µM] | GI50 [7] [µM] | GI50 [8] [µM] | GI50 [9] [µM] | GI50 [10] [µM] |
| --- | --- | --- | --- | --- | --- | --- | --- | --- | --- | --- | --- | --- | --- | --- | --- | --- | --- | --- | --- | --- |
| COC1=CC(=O)c2c(cc3c(c2O)-c2c(OC)cc4cc5c(c(O)c4c2OC(=O)CC(C)(O)C3)C(=O)CC(C)(O)C5)C1=O (centres undefined) | 4.36 | 3.97 | 8.98 | 6.67 | 5.24 | 3.89 | 4.13 | 5.07 | 14.2 | 5.34 |  |  |  |  |  |  |  |  |  |  |
| CS(=N)(=O)CCC(N)P(=O)(O)O (centres undefined) | > 100 | > 100 | > 100 | > 100 | > 100 | > 100 | > 100 | > 100 | > 100 | > 100 |  |  |  |  |  |  |  |  |  |  |
| O=C1Oc2cc3c(c4cccc1c24)OCN(c1ccccc1)C3 | > 100 | > 100 | > 100 | > 100 | > 100 | > 100 | > 100 | > 100 | > 100 | > 100 |  |  |  |  |  |  |  |  |  |  |
| COc1ccc2[nH]c3c4c(cc(-c5ccccc5)c3c2c1)C(=O)N(c1ccccc1)C4=O | > 100 | > 100 | > 100 | > 100 | > 100 | 69.7 | > 81.8 | 19.9 | > 100 | > 100 |  |  |  |  |  |  |  |  |  |  |
| O=C1C=CC(=O)N1c1ccc(I)cc1 | 33.9 | > 67.3 | 45.8 | 7.49 | > 86.3 | 33.6 | > 61.5 | 45.5 | 30.3 | 32.5 |  |  |  |  |  |  |  |  |  |  |
| Cc1cc(=O)oc2cc(OC(=O)Nc3ccccc3)ccc12 | > 100 | > 100 | > 100 | > 100 | > 100 | > 100 | > 100 | 83.5 | > 100 | > 100 |  |  |  |  |  |  |  |  |  |  |
| CC1(C)OC2C(CO)OC(n3ccc(N)nc3=O)C2O1 (centres undefined) | > 100 | > 100 | > 100 | > 100 | > 100 | > 100 | > 100 | > 100 | > 100 | > 100 |  |  |  |  |  |  |  |  |  |  |
| CCCCCCc1cc2cc(-c3csc(/C=C/c4ccccc4)n3)c(=O)oc2cc1O | > 100 | 38.3 | 16.4 | 15.1 | 21.7 | 15.1 | 34.3 | 9.69 | 69.5 | > 100 | 5.53 | 15.9 | 4.42 | 3.72 | 7.01 | 3.71 | 10.3 | 2.88 | 29 | 40.4 |
| COc1ccc(/C=C/C(=O)c2ccc(Nc3nc(Nc4ccc(F)cc4)nc(Nc4ccc(Cl)cc4)n3)cc2)cc1 | > 100 | > 100 | > 100 | > 100 | 84.3 | > 100 | > 100 | 38.2 | > 100 | > 100 | 30.8 | 17.7 | > 100 | 11.9 | 9.91 | 13 | > 100 | 4.68 | > 100 | > 100 |
| CCC(C)CC(C)C(=O)c1c(O)ccn(O)c1=O (centres undefined) | > 100 | 28.1 | > 100 | 17.6 | 11.6 | > 100 | > 100 | 18.3 | > 100 | 8.38 | 0.46 | 3.18 | 3.37 | 1.06 | 0.447 | 2.33 | 1.19 | 0.498 | 17.8 | 2.52 |
| O=C(Cc1ccc(Nc2ccnc(C(F)(F)F)c2)cc1)N/N=C/c1ccccc1O | > 69.5 | > 24.7 | 15.5 | 7.79 | 10.6 | 38.7 | > 100 | 4.61 | > 45.3 | > 28.7 | 0.634 | 2.35 | 2.09 | 0.904 | 1.37 | 3.95 | 4.36 | 0.352 | 4.43 | 3.18 |
| Cc1cc(C(O)(c2ccc(Nc3ccccc3)cc2)c2ccc(Nc3ccc(S(=O)(=O)O)cc3)cc2)ccc1N (centres undefined) | 2.95 | 3.4 | 3.28 | > 100 | 2.78 | 2.28 | 3.48 | > 100 | 3.77 | 3.43 | 1.04 | 1.52 | 1.49 | 0.445 | 1.32 | 0.989 | 1.39 | 0.713 | 1.7 | 1.35 |
| Cc1cc2c(cc1C)[n+](=O)c(C(=O)CC(=O)C(=O)Nc1ccccc1C(C)C)c(C)n2[O-] | > 100 | > 100 | > 100 | > 100 | > 100 | > 100 | > 100 | > 100 | > 100 | 5.82 |  |  |  |  |  |  |  |  |  |  |
| O=C(NS(=O)(=O)c1ccc(NC[C@H]2COCCO2)c([N+](=O)[O-])c1)c1ccc(N2CCN(CC3=C(c4ccc(Cl)cc4)CC4(CCC4)CC3)CC2)cc1Oc1cnc2[nH]ccc2c1 | 4.62 | 3.91 | 5.11 | 5.22 | 6.12 | 2.76 | 7.28 | 5.31 | 7.27 | 4.57 | 1.94 | 1.93 | 2.21 | 1.36 | 2.15 | 1.32 | 2.39 | 1.82 | 2.29 | 2.07 |
| CCC(C)(C)[C@H](NC(=O)[C@H]1CCCCN1C)C(=O)N(C)[C@H](C[C@@H](OC(C)=O)c1nc(C(=O)N[C@@H](Cc2ccccc2)C[C@H](C)C(=O)O)cs1)C(C)C | > 16.7 | > 16.7 | > 16.7 | > 16.7 | > 16.7 |  | > 16.7 | > 16.7 | > 16.7 | > 16.7 | < 0.00167 | < 0.00167 | < 0.00167 | < 0.00167 | < 0.00167 | < 0.00167 | < 0.00167 | < 0.00167 | 0.253 | > 16.7 |
